Where “and” joins values, the source holds several entries; their conditions need not be identical. Equal values may be shown once. Where a name gives a salt, the structure may show the parent alone. Read-outs that look alike come from different tables or passages of the source.
Columns and labels:
[1] = tested on: cancer cell lines; test: Cell viability analysis (WST-1) on cancer cell lines; format: cell-based, human; settings: drug 10 μM, 72 hours, WST-1; Table 3
[2] = tested on: HI650 (Lung Adenocarcinoma); test: Cell viability analysis, lung cancer HI650; format: cell-based, human; settings: Homo sapiens, NCI-H1650, 72 h
[3] = tested on: A549 (Lung Adenocarcinoma); test: Cell viability analysis, lung cancer A549; format: cell-based, human; settings: Homo sapiens, A549, 72 h
[4] = tested on: AGS (Gastric Adenocarcinoma); test: Cell viability analysis, gastric cancer AGS; format: cell-based, human; settings: Homo sapiens, 72 h
[5] = tested on: MKN-45 (Gastric Adenocarcinoma); test: Cell viability analysis, gastric cancer MKN-45; format: cell-based, human; settings: Homo sapiens, MKN-45, 72 h
[6] = tested on: HepG2 (Hepatocellular Carcinoma); test: Cell viability analysis, hepatic cancer HepG2; format: cell-based, human; settings: Homo sapiens, HepG2, 72 h
[7] = tested on: Hep3B (hepatocellular carcinoma); test: Cell viability analysis, hepatic cancer Hep3B; format: cell-based, human; settings: Homo sapiens, Hep3B, 72 h, read-out: The results of antibiotic drug inhibiting cancer cell lines (cell viability analysis), Hep3B
[8] = tested on: LoVo (Colorectal Adenocarcinoma); test: Cell viability analysis, colon cancer LoVo; format: cell-based, human; settings: Homo sapiens, LoVo, 72 h
[9] = tested on: A375 (Amelanotic Melanoma); test: Cell viability analysis, skin cancer A375; format: cell-based, human; settings: Homo sapiens, A-375, 72 h
[10] = tested on: BCC (basal cell carcinoma); test: Cell viability analysis, skin cancer BCC; format: cell-based, human; settings: Homo sapiens, 72 h, read-out: The results of antibiotic drug inhibiting cancer cell lines (cell viability analysis), BCC
[11] = tested on: HeLa (Cervix Adenocarcinoma); test: Cell viability analysis, cervical cancer HeLa; format: cell-based, human; settings: Homo sapiens, HeLa, 72 h
[12] = tested on: C-33A (Cervical carcinoma); test: Cell viability analysis, cervical cancer C-33A; format: cell-based, human; settings: Homo sapiens, C-33-A, 72 h, read-out: The results of antibiotic drug inhibiting cancer cell lines (cell viability analysis), C-33A
[13] = tested on: PC3 (p53−) (Prostate Adenocarcinoma); test: Cell viability analysis, prostate cancer PC3; format: cell-based, human; settings: Homo sapiens, 72 h
[14] = tested on: T24; test: Cell viability analysis, bladder cancer T24; format: cell-based, human; settings: Homo sapiens, T-24, 72 h, read-out: The results of antibiotic drug inhibiting cancer cell lines (cell viability analysis), T24
[15] = tested on: MCF7 (Mammary Gland, Adenocarcinoma); test: Cell viability analysis, breast cancer MCF7; format: cell-based, human; settings: Homo sapiens, MCF7, 72 h
[16] = tested on: MDA-MB-231 (Mammary Gland, Adenocarcinoma); test: Cell viability analysis, breast cancer MDA-MB-231; format: cell-based, human; settings: Homo sapiens, MDA-MB-231, 72 h, read-out: The results of antibiotic drug inhibiting cancer cell lines (cell viability analysis), MDA-MB231
[17] = tested on: BxPC-3; test: Cell viability analysis, pancreatic cancer BxPC-3; format: cell-based, human; settings: Homo sapiens, BXPC-3, 72 h, read-out: The results of antibiotic drug inhibiting cancer cell lines (cell viability analysis), BxPC-3
[18] = tested on: AsPC-1; test: Cell viability analysis, pancreatic cancer AsPC-1; format: cell-based, human; settings: Homo sapiens, ASPC1, 72 h, read-out: The results of antibiotic drug inhibiting cancer cell lines (cell viability analysis), AsPC-1
[19] = tested on: NIH: OVCAR-3; test: Cell viability analysis, ovarian cancer NIH: OVCAR-3; format: cell-based, human; settings: Homo sapiens, OVCAR-3, 72 h, read-out: The results of antibiotic drug inhibiting cancer cell lines (cell viability analysis), NIH-OVCAR-3
[20] = tested on: TOV-21G; test: Cell viability analysis, ovarian cancer TOV-21G; format: cell-based, human; settings: Homo sapiens, TOV21G, 72 h, read-out: The results of antibiotic drug inhibiting cancer cell lines (cell viability analysis), TOV-21G
[21] = tested on: SAS (Tongue squamous cell carcinoma); test: Cell viability analysis, tongue cancer SAS; format: cell-based, human; settings: Homo sapiens, 72 h, read-out: The results of antibiotic drug inhibiting cancer cell lines (cell viability analysis), SAS
[22] = tested on: U-2OS; test: Cell viability analysis, osteosarcoma U-2OS; format: cell-based, human; settings: Homo sapiens, U2OS, 72 h, read-out: The results of antibiotic drug inhibiting cancer cell lines (cell viability analysis), U2OS
[23] = tested on: 786-O (Renal adenocarcinoma); test: Cell viability analysis, renal cancer 786-O; format: cell-based, human; settings: Homo sapiens, 786-0, 72 h, read-out: The results of antibiotic drug inhibiting cancer cell lines (cell viability analysis), 786-O
[24] = tested on: HL-60 (Acute Promyelocytic Leukemia); test: Cell viability analysis, leukemia HL-60; format: cell-based, human; settings: Homo sapiens, HL-60, 72 h, read-out: cell viability (survival rate), HL-60, drug 10 μM, 72 hours, WST-1, OD450 nm
[25] = tested on: HCT116 (p53+) (Colorectal Carcinoma)

`CN(C)[C@@H]1C(O)=C(C(N)=O)C(=O)[C@@]2(O)C(O)=C3C(=O)c4c(O)cccc4[C@@](C)(O)[C@H]3C[C@@H]12` [Tetracycline HCl] was tested, and the “inhibition effect on different cancer cell lines” value [1] was “significant inhibition effect”, the viability at 10 µM ([2]; read-out: The results of antibiotic drug inhibiting cancer cell lines (cell viability analysis), H1650, H1650, repeated experiment) was 87.1% and the viability at 10 µM ([2]; read-out: cell viability (survival rate), H1650, drug 10 μM, 72 hours, WST-1, OD450 nm) was 41.1%. The viability at 10 µM ([3]; read-out: The results of antibiotic drug inhibiting cancer cell lines (cell viability analysis), A549, A549, repeated experiment) was 99.7%, the viability at 10 µM ([3]; read-out: cell viability (survival rate), A549, drug 10 μM, 72 hours, WST-1, OD450 nm) was 72.8% and the viability at 10 µM ([4]; read-out: The results of antibiotic drug inhibiting cancer cell lines (cell viability analysis), AGS, repeated experiment) was 94%. For the same compound, the viability at 10 µM ([4]; read-out: cell viability (survival rate), AGS, drug 10 μM, 72 hours, WST-1, OD450 nm) was 88.2%, the viability at 10 µM ([5]; read-out: The results of antibiotic drug inhibiting cancer cell lines (cell viability analysis), MKN-45, MKN-45, repeated experiment) was 133% and the viability at 10 µM ([5]; read-out: cell viability (survival rate), MKN-45, drug 10 μM, 72 hours, WST-1, OD450 nm) was 55.9%. For the same compound, the viability at 10 µM ([6]; read-out: The results of antibiotic drug inhibiting cancer cell lines (cell viability analysis), HepG2, HepG2, repeated experiment) was 106%, the viability at 10 µM ([6]; read-out: cell viability (survival rate), HepG2, drug 10 μM, 72 hours, WST-1, OD450 nm) was 74.1% and the viability at 10 µM [7] was 92.2%. For the same compound, the viability at 10 µM ([8]; read-out: The results of antibiotic drug inhibiting cancer cell lines (cell viability analysis), LoVo, repeated experiment) was 92%, the viability at 10 µM ([8]; read-out: cell viability (survival rate), LoVo, drug 10 μM, 72 hours, WST-1, OD450 nm) was 71.8% and the viability at 10 µM ([9]; read-out: The results of antibiotic drug inhibiting cancer cell lines (cell viability analysis), A375, A375, repeated experiment) was 82.8%. It also gave a viability at 10 µM ([9]; read-out: cell viability (survival rate), A375, drug 10 μM, 72 hours, WST-1, OD450 nm) of 74.1%, a viability at 10 µM [10] of 100% and a viability at 10 µM ([11]; read-out: The results of antibiotic drug inhibiting cancer cell lines (cell viability analysis), HeLa, repeated experiment) of 79%. For the same compound, the viability at 10 µM ([11]; read-out: cell viability (survival rate), HeLa, drug 10 μM, 72 hours, WST-1, OD450 nm) was 96.1%, the viability at 10 µM [12] was 103% and the viability at 10 µM ([13]; read-out: The results of antibiotic drug inhibiting cancer cell lines (cell viability analysis), PC-3, PC-3, repeated experiment) was 104%. The viability at 10 µM ([13]; read-out: cell viability (survival rate), PC3, drug 10 μM, 72 hours, WST-1, OD450 nm) was 42.9%, the viability at 10 µM [14] was 130% and the viability at 10 µM ([15]; read-out: The results of antibiotic drug inhibiting cancer cell lines (cell viability analysis), MCF-7, MCF-7, repeated experiment) was 93.1%. It also gave a viability at 10 µM ([15]; read-out: cell viability (survival rate), MCF7, drug 10 μM, 72 hours, WST-1, OD450 nm) of 75.9%, a viability at 10 µM [16] of 88.1% and a viability at 10 µM [17] of 77.7%. The viability at 10 µM [18] was 96.7%, the viability at 10 µM [19] was 104% and the viability at 10 µM [20] was 81.9%. For the same compound, the viability at 10 µM [21] was 79.2%, the viability at 10 µM [22] was 53.3% and the viability at 10 µM [23] was 99.9%. The viability at 10 µM [24] was 93.7% and the viability [25] was 115% and 114%.

From patent US10105357B2, “Indication of antibiotic drugs for preparation of cancer inhibition pharmaceutical composition” (LAUNX BIOMEDICAL CO., LTD., priority 2014, dated 2018)
